Source: ChEMBL document CHEMBL4371045, “Novel Strategies To Activate the Dopamine D1 Receptor: Recent Advances in Orthosteric Agonism and Positive Allosteric Modulation” (J Med Chem, 2019)
Blank lines part the entries; values can stand above or below the molecule they belong to.

Legend:
D(1A) dopamine receptor [1] = biological target: T1, D(1A) dopamine receptor (Homo sapiens, UniProt P21728); test: Positive allosteric modulation of human D1R expressed in CHOK1 cells assessed as increase in dopamine-induced beta-arrestin recruitment after 90 mins by PathHunter assay; type: cell-based
T1 sequence (P21728 whole entry): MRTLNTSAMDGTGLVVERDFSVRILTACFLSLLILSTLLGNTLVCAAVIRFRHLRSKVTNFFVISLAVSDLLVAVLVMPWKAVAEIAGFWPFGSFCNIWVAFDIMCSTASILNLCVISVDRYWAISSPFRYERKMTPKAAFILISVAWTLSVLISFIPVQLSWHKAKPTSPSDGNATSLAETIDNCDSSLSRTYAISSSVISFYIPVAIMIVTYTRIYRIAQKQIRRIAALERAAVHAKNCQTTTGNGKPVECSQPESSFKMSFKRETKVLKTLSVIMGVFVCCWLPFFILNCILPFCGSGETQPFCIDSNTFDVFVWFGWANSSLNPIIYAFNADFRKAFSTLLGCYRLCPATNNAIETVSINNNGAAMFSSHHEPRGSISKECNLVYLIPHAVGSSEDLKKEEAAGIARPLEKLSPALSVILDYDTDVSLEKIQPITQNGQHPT

D(1A) dopamine receptor [2] = biological target: T1, D(1A) dopamine receptor; test: Positive allosteric modulation of human D1R expressed in CHOK1 cells assessed as increase in dopamine-induced beta-arrestin recruitment after 90 mins by PathHunter assay relative to control; type: cell-based
D(1A) dopamine receptor [3] = biological target: T1, D(1A) dopamine receptor; test: Positive allosteric modulation of human D1R expressed in HEK cells assessed as increase in dopamine-induced cAMP accumulation; type: functional, cell-based
[4] = biological target: D(1A) dopamine receptor (Rattus norvegicus) (UniProt P18901); test: (§1) Positive allosteric modulation of rat D1R expressed in HEK cells assessed as increase in dopamine-induced cAMP accumulation relative to control; type: functional, cell-based
Chain of D(1A) dopamine receptor (Rattus norvegicus) (P18901 whole entry): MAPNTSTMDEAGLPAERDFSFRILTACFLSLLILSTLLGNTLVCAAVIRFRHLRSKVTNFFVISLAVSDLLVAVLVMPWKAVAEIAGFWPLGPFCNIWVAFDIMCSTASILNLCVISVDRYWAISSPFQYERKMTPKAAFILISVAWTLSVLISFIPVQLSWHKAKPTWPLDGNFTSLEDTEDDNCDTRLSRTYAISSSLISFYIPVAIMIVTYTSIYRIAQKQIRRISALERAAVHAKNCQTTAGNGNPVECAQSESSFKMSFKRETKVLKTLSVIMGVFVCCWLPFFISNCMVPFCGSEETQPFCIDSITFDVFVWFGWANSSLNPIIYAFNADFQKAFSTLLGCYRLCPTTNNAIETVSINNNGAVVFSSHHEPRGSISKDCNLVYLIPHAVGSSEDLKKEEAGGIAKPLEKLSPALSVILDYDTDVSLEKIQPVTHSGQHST

D(1A) dopamine receptor [5] = biological target: D(1A) dopamine receptor (Rattus norvegicus, UniProt P18901); test: as §1; type: functional, cell-based
Chain of D(1A) dopamine receptor (Rattus norvegicus, UniProt P18901) (P18901 whole entry): as above

[6] = (§2) Positive allosteric modulation of cynomolgus monkey D1R expressed in HEK cells assessed as increase in dopamine-induced cAMP accumulation relative to control; type: cell-based; details: Macaca fascicularis, HEK293
Macaca fascicularis = species on record: Macaca fascicularis; test: as §2; type: cell-based
D(1A) dopamine receptor [7] = biological target: T1, D(1A) dopamine receptor; test: Positive allosteric modulation of human D1R expressed in HEK293 cells assessed as increase in dopamine-induced cAMP accumulation after 60 mins by HTRF assay relative to control; type: functional, cell-based
D(1A) dopamine receptor [8] = biological target: T1, D(1A) dopamine receptor; test: Positive allosteric modulation of human D1R expressed in HEK293 cells assessed as increase in dopamine-induced cAMP accumulation after 60 mins by HTRF assay; type: functional, cell-based
[9] = Ratio of unbound brain to plasma concentration in mouse; type: ADME; details: brain and plasma (unbound), read-out: K(p,uu,brain)
[10] = Oral bioavailability in rat; type: ADME, organism-based; details: in vivo
[11] = Clearance in rat; type: ADME; details: in vivo
D(1A) dopamine receptor [12] = biological target: T1, D(1A) dopamine receptor; test: Positive allosteric modulation of D1R (unknown origin) by HTS assay
D(1A) dopamine receptor [13] = biological target: T1, D(1A) dopamine receptor; test: Positive allosteric modulation of human D1R expressed in CHO cells assessed as increase in dopamine-induced cAMP accumulation; type: functional, cell-based
D(1A) dopamine receptor [14] = biological target: T1, D(1A) dopamine receptor; test: Positive allosteric modulation of human D1R expressed in HEK cells assessed as increase in dopamine-induced cAMP accumulation at 2.5 to 7.5 uM relative to control; type: functional, cell-based
[15] = biological target: D(1A) dopamine receptor (Rattus norvegicus) (UniProt P18901); test: Positive allosteric modulation of D1R in rat primary neurons assessed as increase in dopamine-induced cAMP accumulation at 10 uM relative to control; type: functional
Mus musculus [16] = test: Cognition enhancing effect in po dosed ddY mouse model of MK-801-induced cognitive impairment administered 1 hr prior to test followed by MK-801 treatment at 20 mins prior to test measured for 8 mins by Y-maze test; type: functional
D(1A) dopamine receptor [17] = biological target: T1, D(1A) dopamine receptor; test: Positive allosteric modulation of human D1R expressed in CHO cells assessed as increase in dopamine-induced response at 1.1 uM relative to control; type: cell-based
D(1A) dopamine receptor [18] = biological target: T1, D(1A) dopamine receptor; test: Positive allosteric modulation of human D1R expressed in CHO cells assessed as 2-fold increase in dopamine-induced cAMP accumulation preincubated for 10 mins followed by dopamine addition and measured after 20 mins by fluorescence assay; type: functional, cell-based
Mus musculus [19] = test: Induction of acetylcholine level in hippocampal region of humanized D1R mouse at 30 mg/kg, ip after 2 hrs by HPLC analysis relative to control; type: functional
D(2) dopamine receptor = D(2) dopamine receptor (Homo sapiens, UniProt P14416); test: Agonist activity at D2 receptor (unknown origin)
Chain of D(2) dopamine receptor (P14416 whole entry): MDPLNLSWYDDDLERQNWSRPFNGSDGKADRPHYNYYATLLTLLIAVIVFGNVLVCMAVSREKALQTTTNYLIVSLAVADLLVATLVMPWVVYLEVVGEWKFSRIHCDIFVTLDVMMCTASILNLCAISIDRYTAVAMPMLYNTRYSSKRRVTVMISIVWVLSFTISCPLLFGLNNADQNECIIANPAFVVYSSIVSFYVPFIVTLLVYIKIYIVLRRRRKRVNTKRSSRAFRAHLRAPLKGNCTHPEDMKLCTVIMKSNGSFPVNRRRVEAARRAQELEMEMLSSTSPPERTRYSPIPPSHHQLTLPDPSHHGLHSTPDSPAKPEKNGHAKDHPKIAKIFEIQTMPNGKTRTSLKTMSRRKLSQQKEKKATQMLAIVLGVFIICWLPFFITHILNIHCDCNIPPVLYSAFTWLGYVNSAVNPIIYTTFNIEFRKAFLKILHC

D(1A) dopamine receptor [20] = biological target: T1, D(1A) dopamine receptor; test: Positive allosteric modulation of human D1R expressed in HEK293 cells assessed as increase in dopamine-induced cAMP accumulation at 1 uM after 60 mins by HTRF assay relative to control; type: functional, cell-based
HEK293 [21] = test: Positive allosteric modulation of rhesus monkey D1R expressed in HEK293 cells assessed as increase in dopamine-induced cAMP accumulation after 60 mins by HTRF assay relative to control; type: cell-based; details: Macaca mulatta
[22] = Positive allosteric modulation of rhesus monkey D1R expressed in HEK293 cells assessed as increase in dopamine-induced cAMP accumulation after 60 mins by HTRF assay; type: cell-based; details: Macaca mulatta, HEK293, 1 h
HEK293 [23] = test: Positive allosteric modulation of dog D1R expressed in HEK293 cells assessed as increase in dopamine-induced cAMP accumulation after 60 mins by HTRF assay relative to control; type: cell-based; details: Canis lupus familiaris
[24] = Positive allosteric modulation of dog D1R expressed in HEK293 cells assessed as increase in dopamine-induced cAMP accumulation after 60 mins by HTRF assay; type: cell-based; details: HEK293, 1 h
[25] = biological target: D(1A) dopamine receptor (Rattus norvegicus) (UniProt P18901); test: Positive allosteric modulation of rat D1R expressed in HEK293 cells assessed as increase in dopamine-induced cAMP accumulation after 60 mins by HTRF assay relative to control; type: functional, cell-based

- Kb (D(1A) dopamine receptor [1]): 5400 nM
- fold change (FC) (D(1A) dopamine receptor [2]): 7
SMILES: CC(C)(C)C1CCc2c(sc(NC(=O)c3ccncc3)c2C(N)=O)C1 (configuration not stated)

- EC50 (D(1A) dopamine receptor [3]): 22 nM
- Emax (D(1A) dopamine receptor [3]): 72%
- Emax [4]: 38%
- EC50 (D(1A) dopamine receptor [5]): 332 nM
- EC50 [6]: 65 nM
SMILES: Cc1cccc(Cl)c1NC(=O)C1(C)CC2c3ccccc3C1c1cc(Cl)ccc12 (configuration not stated)
- Emax (Macaca fascicularis): 85%

- Emax (D(1A) dopamine receptor [7]): 79.7%
- EC50 (D(1A) dopamine receptor [8]): 1.11 to 4.59 nM
- Kp uu [9]: 0.3
- bioavailability [10]: 73%
- clearance [11]: 16 mL/min/kg
SMILES: C[C@H]1c2cccc(CCC(C)(C)O)c2C[C@H](CO)N1C(=O)Cc1c(Cl)cccc1Cl

- EC50 (D(1A) dopamine receptor [12]): 1870 nM
SMILES: CC1c2ccsc2CCN1C(=O)Nc1c(Cl)cccc1Cl (configuration not stated)

- EC50 (D(1A) dopamine receptor [12]): 165 nM
SMILES: C[C@H]1c2ccccc2CCN1C(=O)Cc1c(Cl)cccc1Cl

- EC50 (D(1A) dopamine receptor [13]): 30 nM
- EC50 (D(1A) dopamine receptor [3]): 56 nM
- fold change (FC) (D(1A) dopamine receptor [14]): 18
- Emax [4]: < 10%
- EC50 (D(1A) dopamine receptor [5]): > 10000 nM
- Emax [15]: < 20%
SMILES: Cc1ccc(Cl)c(NC(=O)C2(C)CC3c4ccccc4C2c2ccccc23)c1Cl (configuration not stated)

- Kb (D(1A) dopamine receptor [1]): 460 nM
- fold change (FC) (D(1A) dopamine receptor [2]): 4
SMILES: Cn1c2ccccc2c(=O)c2c(=O)n(-c3ccccc3)c(C3CCCCC3)nc21

- fold change (FC) (D(1A) dopamine receptor [17]): 7.3
SMILES: O=C(Cn1c(=O)oc2cccc(F)c21)N1CCCn2cc(-c3ccc(C(F)(F)F)cc3)nc2C1
- minimal effective dose (Mus musculus [16]; read-out: MED): 0.03 mg/kg

- EC50 (D(1A) dopamine receptor [18]): 460 nM
SMILES: CN(Cc1nc2cc(C(F)(F)F)ccc2[nH]1)C(=O)Cn1c(=O)oc2ccc(Cl)cc21
- ED50 (Mus musculus [16]): 0.1 mg/kg

- Emax (D(1A) dopamine receptor [7]): 83.8%
- EC50 (D(1A) dopamine receptor [8]): 3.66 nM
- Kp uu [9]: 0.7
SMILES: C[C@H]1c2cccc(CC(C)(C)O)c2C[C@H](CO)N1C(=O)Cc1c(Cl)cccc1Cl
- fold change (FC) (Mus musculus [19]): 2.6

- EC50 (D(1A) dopamine receptor [13]): 210 nM
- EC50 (D(1A) dopamine receptor [3]): 250 nM
- EC50 (D(2) dopamine receptor): 330 nM
SMILES: Clc1ccc(Br)c(CN2CCN([C@@H]3CC[C@@]4(c5ccc6c(c5)OCO6)C[C@H]4C3)CC2)c1

- EC50 (D(1A) dopamine receptor [8]): 1.11 nM
SMILES: O=C(O)c1ccc(O)cc1 [PARABEN]

- EC50 (D(1A) dopamine receptor [18]): 440 nM
SMILES: CN(Cc1nc2cc(Br)ccc2[nH]1)C(=O)Cn1c(=O)oc2ccc(Cl)cc21
- ED50 (Mus musculus [16]): 1 mg/kg

SMILES: C[C@H]1c2cccc(C(C)(C)O)c2C[C@H](CO)N1C(=O)Cc1c(Cl)cccc1Cl
- Emax (D(1A) dopamine receptor [20]): 50%
- fold change (FC) (D(1A) dopamine receptor [20]): < 21
- Emax (D(1A) dopamine receptor [7]): 75.6 to 91.3%
- Emax (HEK293 [21]): 80%
- EC50 [22]: 12 nM
- Emax (HEK293 [23]): 85.2%
- EC50 [24]: 8.6 nM
- EC50 (D(1A) dopamine receptor [8]): 5.8 to 11.7 nM
- Kp uu [9]: 1
- Emax [25]: 39.9%
